From patent publication US8309685B2 (Celgene Avilomics Research, Inc., priority 2007, dated 2012) come the findings set out here.

What all share (assay type): biochemical
Assay [1] has as its target T1, D168A mutant of the HCV NS3/4A 1b protease enzyme (Hepatitis C virus genotype 1b, UniProt P26663, D1194A).
T1 construct: 10× stocks of NS3/4A protease enzyme from Bioenza (Mountain View, Calif.); purchased Bioenza (Mountain View, Calif.)
Briefly: HCV Protease FRET Assay (IC50), D168A mutant. On the procedure:
(§1) HCV Protease FRET Assay for Wild Type and Mutated NS3/4A 1b Enzymes (IC50)
(§2) Protease reactions were started with the addition of 45 μL of the FRET substrate and monitored for 120 minutes at λex487/λem514 through Quad^4 monochromoters in a Synergy^4 plate reader from BioTek (Winooski, Vt.). At the conclusion of each assay, progress curves from each well were examined for linear reaction kinetics and fit statistics (R^2, absolute sum of squares).
(§3) The compound numbers correspond to the compound numbers in Table 3.

In assay [2] the target is T2, wild type HCV NS3/4A 1b protease enzyme (Hepatitis C virus genotype 1b, UniProt P26663).
T2 construct: 10× stocks of NS3/4A protease enzyme from Bioenza (Mountain View, Calif.); purchased Bioenza (Mountain View, Calif.)
As to the kind of experiment: biochemical. On the procedure:
as §1, §2, §3

For assay [3], the target named is T2, wild type HCV NS3/4A 1b protease enzyme. Briefly: HCV Protease FRET Assay (IC50_APP), wild type.
Assay [4] has as its target T1, D168A mutant of the HCV NS3/4A 1b protease enzyme. As to the kind of experiment: HCV Protease FRET Assay (IC50_APP), D168A mutant. The settings on record: apparent IC50, D168A mutant; read-out: IC50_APP, HCV D168A.
For assay [5], the target named is T3, R155K mutant of the HCV NS3/4A 1b protease enzyme (Hepatitis C virus genotype 1b, UniProt P26663, R1181K).
T3 construct: 10× stocks of NS3/4A protease enzyme from Bioenza (Mountain View, Calif.); purchased Bioenza (Mountain View, Calif.)
Briefly: HCV Protease FRET Assay (IC50_APP), R155K mutant. The settings on record: apparent IC50, R155K mutant; read-out: IC50_APP, HCV R155K. On the procedure: HCV Protease FRET Assay for WT and Mutated NS3/4A 1b Enzymes (IC50—APP).
The following protocol was used to generate “apparent” IC50 (IC50—APP) values as depicted in Table 6, below. […] 5 μL of each enzyme were added to Corning (#3575) 384-well, black, microtiter plates (Corning, N.Y.) after spotting a 0.5 μL volume of 50% DMSO and serially diluted compounds prepared in 50% DMSO. Protease reactions were immediately started after enzyme addition with the addition of 45 μL of the FRET substrate and monitored for 60-90 minutes at λex485/λem520 in a Synergy^4 plate reader from BioTek (Winooski, Vt.). At the conclusion of each assay, progress curves from each well were examined for linear reaction kinetics and fit statistics (R^2, 95% confidence intervals, absolute sum of squares).
The compound numbers correspond to the compound numbers in Table 3. […] ;

[6] abbreviates: read-out: Inhibition, HCV D168A, D168A enzyme, FRET assay.
Setting [7] is: read-out: Inhibition, WT, WT enzyme, FRET assay.
Where [8] appears, read: read-out: IC50_APP, WT, apparent IC50, wild type NS3/4A 1b.

Regarding `C=CC(=O)N[C@@H](C)C(=O)N1C[C@H](Oc2cc(-c3ccccc3)nc3cc(OC)ccc23)C[C@H]1C(=O)N[C@]1(C(=O)NS(=O)(=O)c2ccccc2)C[C@H]1C=C` [Compound I-34, (2S,4R)-1-((S)-2-acrylamidopropanoyl)-4-(7-methoxy-2-phenylquinolin-4-yloxy)-N-((1R,2S)-1-(phenylsulfonylcarbamoyl)-2-vinylcyclopropyl)pyrrolidine-2-carboxamide], the IC50 in assay [1] (setting [6]) was in the range of 1000 to 10000 nM; in assay [2] (setting [7]), 10 to 100 nM.
Taken in the same sequence, the figures for `C=CC(=O)N(C)CC(=O)N1C[C@H](Oc2cc(-c3ccccc3)nc3cc(OC)ccc23)C[C@H]1C(=O)N[C@]1(C(=O)NS(=O)(=O)C2CC2)C[C@H]1C=C` [Compound I-37, (2S,4R)—N-((1R,2S)-1-(cyclopropylsulfonylcarbamoyl)-2-vinylcyclopropyl)-4-(7-methoxy-2-phenylquinolin-4-yloxy)-1-(2-(N-methylacrylamido)acetyl)pyrrolidine-2-carboxamide] were 1000 to 10000 nM and 10 to 100 nM.
As for `C=C[C@@H]1C[C@]1(NC(=O)[C@@H]1C[C@@H](Oc2cc(-c3ccccc3)nc3cc(OC)ccc23)CN1C(=O)CNC(=O)OC(C)(C)C)C(=O)NS(=O)(=O)C1CC1` [Compound I-38, tert-butyl-2-((2S,4R)-2-((1R,2S)-1-(cyclopropylsulfonylcarbamoyl)-2-vinylcyclopropylcarbamoyl)-4-(7-methoxy-2-phenylquinolin-4-yloxy)pyrrolidin-1-yl)-2-oxoethylcarbamate], the values for the IC50 in assay [1] (setting [6]) and in assay [2] (setting [7]) were 100 to 1000 nM and below 10 nM, respectively.
The like results for `C=CC(=O)OC(C)(C)[C@H](NC(=O)OC(C)(C)C)C(=O)N1CC(Oc2cc(-c3ccccc3)nc3cc(OC)ccc23)C[C@H]1C(=O)N[C@]1(C(=O)NS(=O)(=O)C2CC2)C[C@H]1C=C` (stereo partly shown) [Compound I-40] were, in that order, below 10 nM and 10 to 100 nM.
Taken in the same sequence, the figures for `C=C[C@@H]1C[C@]1(NC(=O)[C@@H]1C[C@@H](Oc2cc(-c3ccccc3)nc3cc(OC)ccc23)CN1C(=O)CNC(=O)C#CC)C(=O)NS(=O)(=O)c1ccccc1` [Compound I-43, (2S,4R)-1-(2-but-2-ynamidoacetyl)-4-(7-methoxy-2-phenylquinolin-4-yloxy)-N-((1R,2S)-1-(phenylsulfonylcarbamoyl)-2-vinylcyclopropyl)pyrrolidine-2-carboxamide] were 1000 to 10000 nM and 100 to 1000 nM.
Taken in the same sequence, the figures for `C=C[C@@H]1C[C@]1(NC(=O)[C@@H]1C[C@@H](Oc2cc(-c3ccccc3)nc3cc(OC)ccc23)CN1C(=O)CNC(=O)C(=C)C)C(=O)NS(=O)(=O)c1ccccc1` [Compound I-44, (2S,4R)-1-(2-methacrylamidoacetyl)-4-(7-methoxy-2-phenylquinolin-4-yloxy)-N-((1R,2S)-1-(phenylsulfonylcarbamoyl)-2-vinylcyclopropyl)pyrrolidine-2-carboxamide] were 1000 to 10000 nM and 10 to 100 nM.
With `C=CC(=O)N1C[C@H](Oc2cc(-c3ccccc3)nc3cc(OC)ccc23)C[C@H]1C(=O)N[C@]1(C(=O)NS(=O)(=O)C2CC2)C[C@H]1C=C` [Compound I-49, (2S,4R)-1-acryloyl-N-((1R,2S)-1-(cyclopropylsulfonylcarbamoyl)-2-vinylcyclopropyl)-4-(7-methoxy-2-phenylquinolin-4-yloxy)pyrrolidine-2-carboxamide], the IC50 lay in the range of 100 to 1000 nM in assay [1] (setting [6]) and 10 to 100 nM in assay [2] (setting [7]).
With `C=CC(=O)N(C)C[C@@H]1NC(=O)OCCC/C=C/c2ccc3ccnc(c3c2)O[C@@H]2C[C@@H](C(=O)N[C@]3(C(=O)NS(=O)(=O)C4CC4)C[C@H]3C=C)N(C2)C1=O` [Compound I-83], the IC50 in assay [3] is 10 to 100 nM; in assay [4], 1000 to 10000 nM; in assay [5] it was 1000 to 10000 nM.
For `C=CC(=O)NC[C@H](NC(=O)CCCC[C@H]1SC[C@H]2NC(=O)N[C@H]21)C(=O)N1C[C@H](Oc2nccc3cc(OC)ccc23)C[C@H]1C(=O)N[C@]1(C(=O)NS(=O)(=O)C2CC2)C[C@H]1C=C` [Compound I-103, 1-{3-Acryloylamino-2-[5-(2-oxo-hexahydro-thieno[3,4-d]imidazol-6-yl)-pentanoylamino]-propionyl}-4-(6-methoxy-isoquinolin-1-yloxy)-pyrrolidine-2-carboxylic acid (1-cyclopropanesulfonylaminocarbonyl-2-vinyl-cyclopropyl)-amide], the IC50 in assay [3] (setting [8]) lay in the range of 10 to 100 nM; in assay [4] it was 10 to 100 nM; in assay [5] it was 100 to 1000 nM.
With `C=CC(=O)NC[C@H](NC(=O)CCCC(=O)NCCCOCCOCCOCCCNC(=O)CCCC[C@@H]1SC[C@@H]2NC(=O)N[C@@H]21)C(=O)N1C[C@H](Oc2nccc3cc(OC)ccc23)C[C@H]1C(=O)N[C@]1(C(=O)NS(=O)(=O)C2CC2)C[C@H]1C=C` [Compound I-104], the IC50 in assay [3] (setting [8]) is below 10 nM; in assay [4], 10 to 100 nM; in assay [5], 10 to 100 nM.
As to `C=C[C@@H]1C[C@]1(NC(=O)[C@@H]1C[C@@H](Oc2nccc3cc(OC)ccc23)CN1C(=O)[C@H](CC(=O)/C(C)=C/C)NC(=O)OC(C)(C)C)C(=O)NS(=O)(=O)C1CC1` [Compound I-133], the IC50 is below 10 nM in assay [3] (setting [8]), 100 to 1000 nM in assay [4] and 10 to 100 nM in assay [5].
The like results for `C=C[C@@H]1C[C@]1(NC(=O)[C@@H]1C[C@@H](Oc2nccc3cc(OC)ccc23)CN1C(=O)[C@@H](NC(=O)OC(C)(C)C)C(C)(C)C(=O)C=C(C)C)C(=O)NS(=O)(=O)C1CC1` [Compound I-134] were, in that order, below 10 nM, 100 to 1000 nM and 10 to 100 nM.
The like results for `C=C[C@@H]1C[C@]1(NC(=O)[C@@H]1C[C@@H](Oc2nccc3cc(OC)ccc23)CN1C(=O)[C@H](CCC(=O)/C=C/c1ccccc1)NC(=O)OC(C)(C)C)C(=O)NS(=O)(=O)C1CC1` [Compound I-137] were, in that order, 10 to 100 nM, 1000 to 10000 nM and 1000 to 10000 nM.
Regarding `[2H]C([2H])([2H])C(=CC(=O)CC[C@H](NC(=O)OC(C)(C)C)C(=O)N1C[C@H](Oc2nccc3cc(OC)ccc23)C[C@H]1C(=O)N[C@]1(C(=O)NS(=O)(=O)C2CC2)C[C@H]1C=C)C([2H])([2H])[2H]` [Compound I-142], the IC50 is below 10 nM in assay [3] (setting [8]), 100 to 1000 nM in assay [4] and 10 to 100 nM in assay [5].
On to `C=C[C@@H]1C[C@]1(NC(=O)[C@@H]1C[C@@H](Oc2nccc3cc(OC)ccc23)CN1C(=O)[C@H](CCC(=O)/C=C/C(C)(C)C)NC(=O)OC(C)(C)C)C(=O)NS(=O)(=O)C1CC1` [Compound I-143], for which the IC50 is below 10 nM in assay [3] (setting [8]), 1000 to 10000 nM in assay [4] and 100 to 1000 nM in assay [5].
For the compound `C=C[C@@H]1C[C@]1(NC(=O)[C@@H]1C[C@@H](Oc2cc(-c3ccccc3)nc3cc(OC)ccc23)CN1C(=O)CNC(=O)CC)C(=O)NS(=O)(=O)c1ccccc1` [I^R-27, (2S,4R)-4-(7-methoxy-2-phenylquinolin-4-yloxy)-N-((1R,2S)-1-(phenylsulfonylcarbamoyl)-2-vinylcyclopropyl)-1-(2-propionamidoacetyl)pyrrolidine-2-carboxamide], the IC50 in assay [1] was in the range of 1000 to 10000 nM; in assay [2] it was 100 to 1000 nM.
